Test [1] addresses T1, human KOP receptor (Homo sapiens, UniProt P41145). The experiment in a line: Radioligand competition binding, [3H]U69,593, membranes of transfected CHO cells (Kappa-CN). For orientation: Loss of bound radioactivity is the signal in a displacement assay; it reports binding, not function.
Test [2] addresses T2, human NOP receptor (Homo sapiens, UniProt P41146). The test can be described thus: Radioligand competition binding, [3H]N/OFQ, membranes of transfected CHO cells.
For test [3], the target named is T3, human MOP receptor (Homo sapiens, UniProt P35372). The test can be described thus: Radioligand competition binding, [3H]DAMGO, membranes of transfected CHO cells.
Test [4] addresses T4, human DOP receptor (Homo sapiens, UniProt P41143). The test can be described thus: Radioligand competition binding, [3H]DPDPE, membranes of transfected CHO cells.
The target in test [5] is T3, human MOP receptor. The test can be described thus: biochemical.
In test [6] the target is T1, human KOP receptor. The experiment in a line: biochemical.
In test [7] the target is T4, human DOP receptor. The experiment in a line: [35S]GTPγS functional assay (intrinsic activity; Schild analysis vs DPDPE). The class given is biochemical. Conditions: inhibition of agonist-induced [35S]GTPγS binding, read-out: Antagonist Potency (pA2 ± SEM) DOP (converted).
Test [8] deals with T3, human MOP receptor. The conditions noted are these: read-out: MOP Ki; Figure 1; cited from earlier work.
In test [9] the target is T4, human DOP receptor. The conditions noted are these: read-out: DOP Ki; Figure 1; cited from earlier work.
The target in test [10] is T1, human KOP receptor. On the set-up: method as in PMID 25635572. The conditions noted are these: Figure 1; cited from earlier work.
Test [11] addresses T2, human NOP receptor. The test can be described thus: [35S]GTPγS functional assay (intrinsic activity; Schild analysis vs N/OFQ). Format: biochemical. In general terms: GTPγS resists hydrolysis and so accumulates on activated G proteins.
In test [12] the target is T2, human NOP receptor. The arrangement: method as in PMID 25635572. The conditions noted are these: Figure 1; cited from earlier work.
The mark [13] stands for this setting: [3H]U69,593 displacement, Cheng-Prusoff, mean ± SEM, at least three experiments in triplicate, read-out: Receptor Binding, Ki KOP.
[14] abbreviates: [3H]N/OFQ displacement, Cheng-Prusoff, mean ± SEM, at least three experiments in triplicate, read-out: Receptor Binding, Ki NOP.
Where [15] appears, read: [3H]DAMGO displacement, Cheng-Prusoff, mean ± SEM, at least three experiments in triplicate, read-out: Receptor Binding, Ki MOP.
Where [16] appears, read: read-out: Receptor Binding, Ki DOP.
The mark [17] stands for this setting: read-out: Receptor Binding, Ki KOP.
Setting [18] is: read-out: Receptor Binding, Ki MOP.

The values that follow come from publication PMC5643385, “Probing ligand recognition of the opioid pan antagonist AT-076 at nociceptin, kappa, mu, and delta opioid receptors through structure-activity relationships” (Scientific Reports, 2017).

Molecules are shown by their SMILES. Read-outs that look alike come from different tables or passages of the source.

As usually defined, the Ki is the equilibrium dissociation constant of an inhibitor or competing ligand from its target.

On to `CC(C)[C@@H](CN1CCC(c2cccc(C#N)c2)CC1)NC(=O)[C@H]1Cc2ccccc2CN1` [Compound 9, (R)-N-((S)-1-(4-(3-cyanophenyl)piperidin-1-yl)-3-methylbutan-2-yl)-1,2,3,4-tetrahydroisoquinoline-3-carboxamide], for which the inhibition constant (Ki) was 543 ± 62.2 nM in test [1] (setting [13]), greater than 10000 nM in [2] (setting [14]), 973 ± 21 nM in test [3] (setting [15]) and greater than 10000 nM in test [4] (setting [16]).
As for `CC(C)[C@@H](CN1CCC(C2CCCCC2)CC1)NC(=O)[C@H]1Cc2ccc(O)cc2CN1` [Compound 14, (R)-N-((S)-1-(4-cyclohexylpiperidin-1-yl)-3-methylbutan-2-yl)-7-hydroxy-1,2,3,4-tetrahydroisoquinoline-3-carboxamide], the Kb was 0.692 nM in [5], 0.0347 nM in test [6] and 42.3 nM in test [7]. Further, the “Binding selectivity for KOP over DOP” value in [1] worked out at 49 fold. In addition, the “Binding selectivity for KOP over MOP” value in [1] came to 11 fold. Also, in [1], the “Binding selectivity for KOP over NOP” value worked out at 333 fold. In addition, in test [1], the “Higher KOP affinity than AT-076” value is 2–4 fold. The inhibition constant Ki in [1] was determined as 0.253 ± 0.015 nM; in test [2], 84.4 ± 13.6 nM; in test [3], 2.79 ± 0.28 nM; in test [4], 12.4 ± 8 nM.
For `CC(C)[C@@H](CN1CCC(c2cccc(O)c2)CC1)NC(=O)[C@H]1Cc2ccc(C#N)cc2CN1` [Compound 2, (R)-7-cyano-N-((S)-1-(4-(3-hydroxyphenyl)piperidin-1-yl)-3-methylbutan-2-yl)-1,2,3,4-tetrahydroisoquinoline-3-carboxamide], the “Decrease in KOP binding affinity compared to AT-076” value (“Decrease in KOP binding affinity” for short) in test [1] amounted to 6 fold. The Ki is 6.73 ± 1.42 nM in test [1], 1890 ± 270 nM in [2] (setting [14]), 81.7 ± 12.4 nM in [3] and 73.7 ± 57.9 nM in test [4]. The “Profile in Schild analysis KOP” value in test [6] is given as “N/C^#”.
`CC(C)[C@@H](CN1CCC(c2cccc(CN)c2)CC1)NC(=O)[C@H]1Cc2ccccc2CN1` [Compound 11, (R)-N-((S)-1-(4-(3-(aminomethyl)phenyl)piperidin-1-yl)-3-methylbutan-2-yl)-1,2,3,4-tetrahydroisoquinoline-3-carboxamide]: the Ki in [1] (setting [13]) is 408 ± 30.8 nM; in [2] (setting [14]), 202 ± 55.6 nM; in test [3] (setting [15]) it was 284 ± 75.3 nM; in test [4] (setting [16]) it was greater than 10000 nM.
As for `CC(C)[C@@H](CN1CCC(c2cccc(C#N)c2)CC1)NC(=O)[C@H]1Cc2ccc(O)cc2CN1` [Compound 8, (R)-N-((S)-1-(4-(3-cyanophenyl)piperidin-1-yl)-3-methylbutan-2-yl)-7-hydroxy-1,2,3,4-tetrahydroisoquinoline-3-carboxamide], the figures for the Kb in test [5] and in [6] were 8.13 nM and 0.269 nM, respectively. Further, the Ki in test [1] is 3.86 ± 0.09 nM; in test [2] it was 61.3 ± 14.6 nM; in test [3], 2.93 ± 0.67 nM; in test [4] (setting [16]), 136 ± 59.7 nM.
In the case of `CC(C)[C@@H](CN1CCC(c2cccc(O)c2)CC1)NC(=O)[C@H]1Cc2ccc(O)cc2CN1` [1 (AT-076), (R)-7-hydroxy-N-((S)-1-(4-(3-hydroxyphenyl)piperidin-1-yl)-3-methylbutan-2-yl)-1,2,3,4-tetrahydroisoquinoline-3-carboxamide], the Ki was 1.67 ± 0.6 nM in test [8]; 19.6 ± 1.3 nM in test [9]; 1.14 ± 0.63 nM in test [1] (setting [17]); 1.14 ± 0.63 nM in test [10]; 1.67 ± 0.6 nM in test [3] (setting [18]); 19.6 ± 1.3 nM in [4] (setting [16]). Besides, the “Antagonist Potency (pA2 ± SEM) MOP” value in test [5] (cho cell membranes) is on record as 9.24. For the same compound, the “Antagonist Potency (pA2 ± SEM) KOP” value in test [6] (cho cell membranes) was 8.366. For the same compound, the Kb in test [7] is 26.9 nM.
As to `CC(C)[C@@H](CN1CCC(c2cccc(O)c2)CC1)NC(=O)[C@@H](N)CCCNC(=N)N` [Compound 7, (S)-2-amino-5-guanidino-N-((S)-1-(4-(3-hydroxyphenyl)piperidin-1-yl)-3-methylbutan-2-yl)pentanamide], the inhibition constant (Ki) in [1] (setting [13]) is 125 ± 2.4 nM; in test [2] (setting [14]) it was greater than 10000 nM; in test [3] (setting [15]), 1440 ± 57.6 nM; in [4] (setting [16]), greater than 10000 nM.
Turning to `CC(C)[C@@H](CN1CCC(N2CCc3ccccc32)CC1)NC(=O)[C@H]1Cc2ccc(O)cc2CN1` [Compound 16, (R)-7-hydroxy-N-((S)-1-(4-(indolin-1-yl)piperidin-1-yl)-3-methylbutan-2-yl)-1,2,3,4-tetrahydroisoquinoline-3-carboxamide], the values for the inhibition constant (Ki) in [2] (setting [14]) and in test [4] (setting [16]) were 566 ± 129 nM and 138 ± 45 nM, respectively.
In the case of `CC(C)[C@@H](CN1CCC(c2cccc(O)c2)CC1)NC(=O)[C@H]1Cc2ccc(CNS(C)(=O)=O)cc2CN1` [Compound 5, (R)-N-((S)-1-(4-(3-hydroxyphenyl)piperidin-1-yl)-3-methylbutan-2-yl)-7-(methylsulfonamidomethyl)-1,2,3,4-tetrahydroisoquinoline-3-carboxamide], the Ki is 295 ± 65 nM in test [1] (setting [13]), 7910 ± 1470 nM in [2] (setting [14]), 4400 ± 2350 nM in test [3] (setting [15]) and greater than 10000 nM in test [4] (setting [16]).
Turning to `CC(C)[C@@H](CN1CCC(c2cccc(CNC(=O)[C@@H](N)CCCNC(=N)N)c2)CC1)NC(=O)[C@H]1Cc2ccccc2CN1` [Compound 13, (R)-N-((S)-1-(4-(3-(((S)-2-amino-5-guanidinopentanamido)methyl)phenyl)piperidin-1-yl)-3-methylbutan-2-yl)-1,2,3,4-tetrahydroisoquinoline-3-carboxamide], the inhibitory constant (Ki) in test [1] was 56.1 ± 5.38 nM; in [2], 43.3 ± 19.1 nM; in [3] (setting [15]), 408 ± 37.3 nM; in test [4] (setting [16]), greater than 10000 nM.
Regarding `CC(C)[C@@H](CN1CCC(c2cccc(CNC(=O)[C@@H](N)CCCNC(=N)N)c2)CC1)NC(=O)[C@H]1Cc2ccc(O)cc2CN1` [Compound 12, (R)-N-((S)-1-(4-(3-(((S)-2-amino-5-guanidinopentanamido)methyl)phenyl)piperidin-1-yl)-3-methylbutan-2-yl)-7-hydroxy-1,2,3,4-tetrahydroisoquinoline-3-carboxamide], the Kb was 0.692 nM in test [5], 5.01 nM in test [11] and 0.158 nM in [6]. In addition, the Ki came to 2.11 ± 0.52 nM in [1], 6.04 ± 1.32 nM in [2], 5.67 ± 2.38 nM in test [3] and 53.6 ± 7.12 nM in test [4].
With `CC(C)[C@@H](CN1CCC(c2cccc(O)c2)CC1)NC(=O)[C@H]1Cc2ccc(CN)cc2CN1` [Compound 3, (R)-7-(aminomethyl)-N-((S)-1-(4-(3-hydroxyphenyl)piperidin-1-yl)-3-methylbutan-2-yl)-1,2,3,4-tetrahydroisoquinoline-3-carboxamide], the “Decrease in KOP binding affinity” value in test [1] was greater than 100 fold. For the same compound, the inhibition constant Ki is 118 ± 29 nM in [1] (setting [13]), 5540 ± 1150 nM in [2] (setting [14]), 1490 ± 220 nM in test [3] (setting [15]) and 1570 ± 1130 nM in test [4] (setting [16]). Also, the “Decrease in MOP binding affinity compared to AT-076” value in [3] is greater than 100 fold. The “Decrease in DOP binding affinity compared to AT-076” value in [4] was greater than 100 fold.
Consider `CC(C)[C@@H](CN1CCC(c2cccc(O)c2)CC1)NC(=O)[C@H]1Cc2ccc(CNC(=N)N)cc2CN1` [Compound 4, (R)-7-(guanidinomethyl)-N-((S)-1-(4-(3-hydroxyphenyl)piperidin-1-yl)-3-methylbutan-2-yl)-1,2,3,4-tetrahydroisoquinoline-3-carboxamide], for which the inhibition constant (Ki) was 129 ± 60 nM in test [1] (setting [13]), 3260 ± 780 nM in test [2] (setting [14]), 180 ± 70 nM in test [3] (setting [15]) and greater than 10000 nM in test [4] (setting [16]). Besides, the “Decrease in KOP binding affinity” value in test [1] (vs lead AT-076 (1)) was greater than 100 fold. The “Decrease in MOP binding affinity compared to AT-076” value in test [3] (vs lead AT-076 (1)) is greater than 100 fold. In addition, the “Decrease in DOP binding affinity compared to AT-076” value in test [4] (vs lead AT-076 (1)) is on record as greater than 100 fold.
In the case of `CC(C)[C@@H](CN1CC[C@@](C)(c2cccc(O)c2)[C@@H](C)C1)NC(=O)[C@H]1Cc2ccc(O)cc2CN1` [JDTic, reference compound], the Ki in test [2] (read-out: Receptor Binding, Ki NOP) was 16.7 ± 0.76 nM; in test [12] it was 16.7 ± 0.76 nM.
With `Cc1cccc2c1CC[C@H](CN1CCC(c3c(Cl)cccc3Cl)CC1)C[C@@H]2O` [SB-612111, reference compound], the results for the Ki in [1] (setting [17]), in test [3] (setting [18]) and in test [4] (setting [16]) were 541 ± 36.3 nM, 623 ± 156 nM and 2890 ± 532 nM, respectively.
Consider `CC(C)[C@@H](CN1CCC(c2cccc(CN)c2)CC1)NC(=O)[C@H]1Cc2ccc(O)cc2CN1` [Compound 10, (R)-N-((S)-1-(4-(3-(aminomethyl)phenyl)piperidin-1-yl)-3-methylbutan-2-yl)-7-hydroxy-1,2,3,4-tetrahydroisoquinoline-3-carboxamide], for which the Kb was 15.5 nM in test [5], 132 nM in [11] and 0.38 nM in [6]. The Ki was determined as 1.08 ± 0.01 nM in [1], 30.7 ± 14.5 nM in test [2], 0.68 ± 0.28 nM in [3] and 133 ± 24.9 nM in [4] (setting [16]). Also, the “Increase in NOP binding affinity compared to cyano precursor 8” value in [2] was found to be 2 fold.
Regarding `CC(C)[C@@H](CN1CCC(c2cccc(O)c2)CC1)NC(=O)[C@@H](N)CCCCN` [Compound 6, (S)-2,6-diamino-N-((S)-1-(4-(3-hydroxyphenyl)piperidin-1-yl)-3-methylbutan-2-yl)hexanamide], the Ki in test [1] (setting [13]) was 1520 ± 419 nM; in [2] (setting [14]), greater than 10000 nM; in test [3] (setting [15]), greater than 10000 nM; in test [4] (setting [16]) it was greater than 10000 nM.
